Like-named read-outs stand apart in the source and are kept apart here.

Results on 4 molecules are retold here after patent publication US20070122830A1, “Prohibitin-directed diagnostics and therapeutics for cancer and chemotherapeutic drug resistance” (Aurelium BioPharma Inc., priority 2005, published 2007).

Assay type in all cases: cell-based, human
The test system of assay [1] is MCF-7 Breast Cancer Cell Line. Description: MTT cytotoxicity assay, transfected MCF-7 cells plus chemotherapeutic drug. To be noted: for sensitivity to drug of prohibitin siRNA treated cells: MCF-7, FIGS. 15A-15H; for fold change of EC50, Prohibitin vs Control: direction IS/IR in same cell (E42). Here is the method:
(§1) For a typical siRNA transfection, 1 nmole of the annealed siRNA duplex was mixed with 1.4 ml of Opti-MEM reagent (Invitrogen). In another tube, […] of Oligofectamine reagent (Invitrogen, Carlsbad, Calif.) was mixed with […] of Opti-MEM. The two solutions were combined and mixed gently by inversion and incubated for 20 min. at RT. The resulting solution was added to the cultured cells drop by drop in a 10 cm dish (cells are approximately 40-50% confluent). The next day the transfected cells were trypsinized and seeded in 6 or 96-well plates and further incubated for the indicated amount of time (assay dependent) before further analysis.
(§2) Cell survival was determined using the MTT cytotoxicity assay (see, e.g., Tokuyama et al. (2005) Anticancer Res. 25(1A): 17-22). RNA-transfected cells were seeded in triplicate into 96-well plates at 5×10^3 cells/well 48 hrs post-transfection. The cells were incubated for an additional 16 to 24 hrs before they were exposed to increasing concentrations of cytotoxic drugs. Doxorubicin (adriamycin), cisplatinum, taxol, vinblastin, vincristin, and mitoxantrone were all purchased from Sigma Corp. (St. Louis, Mo.). […] Appropriate dilutions were made in the respective media for each cell line. Following addition of drugs, incubation was continued for an additional 72 hrs. […] of MTT dye (5 mg/ml) were added into each well and the plate was further incubated at 37° C. for 4 hrs. The dye was solubilized with 10% Triton X-100, 0.01 N HCl and further incubated at 37° C. in the dark for 30 min. Cell viability was determined by measure of absorption at 570 nm in a Wallac multiwell plate reader (PerkinElmer, Inc., Boston, Mass.). The averages of triplicate wells were plotted using the Prism software (GraphPad Software, Inc., San Diego, Calif.).
Cell survival was determined as described in Example 3 above.
(Tetrazolium dyes change colour on reduction, which living cells bring about.)

Assay [2] has as its system MDA Breast Cancer Cell Line. The assay is described as follows: MTT cytotoxicity assay, transfected MDA cells plus chemotherapeutic drug. Particulars: for IC50: Homo sapiens, mock-transfected control, read-out: EC50, Control; for IC50 / EC50 / fold change of EC50, Prohibitin vs Control: MDA cells; for EC50: prohibitin (siRNA) transfected, read-out: EC50, Prohibitin; for sensitivity to drug of prohibitin siRNA treated cells compared to mock-treated cells / sensitivity to drug of prohibitin siRNA treated cells compared to mock controls: MDA; for sensitivity to drug of prohibitin siRNA treated cells compared to mock-treated cells: FIG. 9A-9H. As for the experimental part: as §1
as §2, with “RNA-transfected” for “Cell survival was determined using the MTT cytotoxicity assay (see, e.g., Tokuyama et al. (2005) Anticancer Res. 25(1A): 17-22). RNA-transfected”, “drugs.” for “drugs. Doxorubicin (adriamycin), cisplatinum, taxol, vinblastin, vincristin, and mitoxantrone were all purchased from Sigma Corp. (St. Louis, Mo.).”

The test system of assay [3] is SKOV3 Ovarian Cancer Cell Line. The assay is described as follows: MTT cytotoxicity assay, transfected SKOV3 cells plus chemotherapeutic drug. To be noted: for IC50: Homo sapiens, SK-OV-3, SKOV3 cells, mock-transfected control, read-out: EC50, Control; for EC50 / fold change of EC50, Prohibitin vs Control: SKOV3 cells; for EC50: prohibitin (siRNA) transfected, read-out: EC50, Prohibitin; for fold change of EC50, Prohibitin vs Control: direction IS/IR in same cell (E54). As for the experimental part: as §1
as §2, with “RNA-transfected” for “Cell survival was determined using the MTT cytotoxicity assay (see, e.g., Tokuyama et al. (2005) Anticancer Res. 25(1A): 17-22). RNA-transfected”, “drugs.” for “drugs. Doxorubicin (adriamycin), cisplatinum, taxol, vinblastin, vincristin, and mitoxantrone were all purchased from Sigma Corp. (St. Louis, Mo.).”
Each table summarizes the results of an individual experiment performed in triplicate.

The mark [4] stands for this setting: Table 3 experiment, direction IS/IR in same cell (E6).
Where [5] appears, read: Table 4 experiment, direction IS/IR in same cell (E12).
Where [6] appears, read: Table 8 experiment, direction IS/IR in same cell (E36).
Setting [7] is: MCF-7 cells, prohibitin (siRNA) transfected, Table 9, read-out: EC50, Prohibitin.
Where [8] appears, read: Table 7 experiment, direction IS/IR in same cell (E30).

Regarding `N[C@@H](Cc1ccc(N(CCCl)CCCl)cc1)C(=O)O` [Melphalan], the EC50 is 14700 nM in assay [1] (Homo sapiens, MCF7, MCF-7 cells, mock-transfected control, Table 9, read-out: EC50, Control); 10500 nM in assay [1] (Homo sapiens, MCF7, MCF-7 cells, prohibitin (siRNA) transfected, Table 9, read-out: EC50, Prohibitin); 39000 nM in assay [2] (Table 3 experiment); 41000 nM in assay [2] (Table 4 experiment); 23800 nM in assay [2] (Table 7 experiment); 19100 nM in assay [2] (Table 8 experiment). Also, the EC50 came out at 4540 nM in assay [3] (Table 10 experiment) and 4560 nM in assay [3] (Table 11 experiment). Moreover, in assay [1], the “sensitivity to drug of prohibitin siRNA treated cells” value is “more sensitive”. For the same molecule, the “fold change of EC50, Prohibitin vs Control” value (“fold change of EC50” below) in assay [1] (MCF-7 cells, Table 9) is on record as 1.4 x; in assay [2] (setting [4]), 1.5 x; in assay [2] (setting [5]), 1.1 x; in assay [2] (setting [6]), 1.8 x; in assay [3] (Table 11 experiment), 1.3 x. In addition, the IC50 in assay [2] (Table 3 experiment) was determined as 60100 nM; in assay [2] (Table 4 experiment) it was 36100 nM; in assay [2] (Table 7 experiment), 24800 nM; in assay [2] (Table 8 experiment) it was 35400 nM; in assay [3] (Table 10 experiment), 5790 nM; in assay [3] (Table 11 experiment), 5950 nM. Also, in assay [2], the “sensitivity to drug of prohibitin siRNA treated cells compared to mock-treated cells” value is reported as “increased sensitivity”. Moreover, the “sensitivity to drug of prohibitin siRNA treated cells compared to mock controls” value (“sensitivity to drug … compared to mock controls” for short) in assay [2] (FIGS. 14A-14H) is given as “more sensitive”.

For `O=C1c2c(O)ccc(O)c2C(=O)c2c(NCCNCCO)ccc(NCCNCCO)c21` [Mitoxantrone], the “sensitivity to drug of prohibitin siRNA treated cells” value in assay [1] was “more sensitive”. Also, the half-maximal effective concentration (EC50) in assay [1] (setting [7]) worked out at 3.94 nM; in assay [2] (Table 3 experiment), 0.173 nM; in assay [2] (Table 4 experiment) it was 0.409 nM; in assay [2] (Table 7 experiment) it was 27.6 nM; in assay [2] (Table 8 experiment), 26.6 nM; in assay [3] (Table 10 experiment), 0.358 nM. Also, the 50% effective concentration (EC50) in assay [3] (Table 11 experiment) is 0.118 nM. Besides, the “fold change of EC50” value is 2.2 x in assay [1] (MCF-7 cells, Table 9); 1.6 x in assay [2] (setting [4]); 4.2 x in assay [2] (setting [5]); 1.6 x in assay [2] (setting [8]); 1.5 x in assay [2] (setting [6]); 1.2 x in assay [3] (Table 11 experiment). Further, the IC50 in assay [2] (Table 3 experiment) was 0.11 nM; in assay [2] (Table 4 experiment), 0.0961 nM; in assay [2] (Table 7 experiment), 44.1 nM; in assay [2] (Table 8 experiment), 40.9 nM; in assay [3] (Table 10 experiment), 0.801 nM; in assay [3] (Table 11 experiment), 0.147 nM. In addition, the “sensitivity to drug … compared to mock controls” value in assay [2] (FIGS. 13A-13H) was “increased the sensitivity”; in assay [2] (FIGS. 14A-14H) it was “more sensitive”.

Consider `CC(=O)O[C@H]1C(=O)[C@@]2(C)[C@H]([C@H](OC(=O)c3ccccc3)[C@]3(O)C[C@H](OC(=O)[C@H](O)[C@@H](NC(=O)c4ccccc4)c4ccccc4)C(C)=C1C3(C)C)[C@]1(OC(C)=O)CO[C@@H]1C[C@@H]2O` [Taxol], for which, in assay [1], the “sensitivity to drug of prohibitin siRNA treated cells” value is reported as “more sensitive”. Further, the “increase in sensitivity to drug as compared to controls” value in assay [1] (MCF-7 cells treated with prohibitin siRNA, FIG. 15B) came out at 30 fold. Also, the EC50 in assay [1] (setting [7]) was 2.62 nM; in assay [2] (Table 3 experiment), 515 nM; in assay [2] (Table 4 experiment), 301 nM; in assay [2] (Table 5 experiment), 6.55 nM; in assay [2] (Table 6 experiment), 6.19 nM; in assay [2] (Table 7 experiment), 4.38 nM. Also, the EC50 in assay [2] (Table 8 experiment) was determined as 12.7 nM; in assay [3] (Table 10 experiment), 0.536 nM; in assay [3] (Table 11 experiment), 1.09 nM. The “fold change of EC50” value in assay [1] (MCF-7 cells, Table 9) came out at 30.0 x; in assay [2] (setting [4]), 2.6 x; in assay [2] (Table 5 experiment, direction IS/IR in same cell (E18)), 1.3 x; in assay [2] (Table 6 experiment, direction IS/IR in same cell (E24)), 1.7 x; in assay [2] (setting [8]), 1.9 x; in assay [2] (setting [6]) it was 1.5 x. Moreover, the “fold change of EC50” value in assay [3] (Table 11 experiment) is 1.7 x. Besides, the IC50 amounted to 200 nM in assay [2] (Table 3 experiment); 316 nM in assay [2] (Table 4 experiment); 5.11 nM in assay [2] (Table 5 experiment); 10.8 nM in assay [2] (Table 6 experiment); 8.32 nM in assay [2] (Table 7 experiment); 19.2 nM in assay [2] (Table 8 experiment). Also, the IC50 in assay [3] (Table 10 experiment) came out at 0.895 nM; in assay [3] (Table 11 experiment), 1.82 nM. Also, the “sensitivity to drug … compared to mock controls” value in assay [2] (FIGS. 12A-12D) was “increased sensitivity”; in assay [2] (FIGS. 13A-13H), “increased the sensitivity”; in assay [2] (FIGS. 14A-14H), “more sensitive”.

`CC[C@]1(O)C[C@H]2CN(CCc3c([nH]c4ccccc34)[C@@](C(=O)OC)(c3cc4c(cc3OC)N(C=O)[C@H]3[C@@](O)(C(=O)OC)[C@H](OC(C)=O)[C@]5(CC)C=CCN6CC[C@]43[C@@H]65)C2)C1` [Vincristin]: the EC50 in assay [1] (setting [7]) was 350 nM; in assay [2] (Table 3 experiment) it was 837 nM; in assay [2] (Table 4 experiment), 18600 nM; in assay [2] (Table 8 experiment) it was 4.3 nM; in assay [3] (Table 10 experiment) it was 3.17 nM; in assay [3] (Table 11 experiment), 2.53 nM. Moreover, the “change in sensitivity to the drug, Prohibitin vs Control” value in assay [1] (MCF-7 cells, Table 9) is recorded as “IR (IR: “increased in resistance” to the drug)”. The “fold change of EC50” value is reported as 2.1 x in assay [1] (MCF-7 cells, Table 9); 3.4 x in assay [2] (setting [4]); 12.5 x in assay [2] (setting [5]); 2.9 x in assay [2] (setting [6]); 1.4 x in assay [3] (Table 11 experiment). The IC50 in assay [2] (Table 3 experiment) stood at 2840 nM; in assay [2] (Table 4 experiment), 1480 nM; in assay [2] (Table 7 experiment) it was 12.3 nM; in assay [2] (Table 8 experiment) it was 12.4 nM; in assay [3] (Table 10 experiment), 3.75 nM; in assay [3] (Table 11 experiment) it was 3.58 nM. Further, in assay [2], the “sensitivity to drug of prohibitin siRNA treated cells compared to mock-treated cells” value was “increased sensitivity”. Also, the “sensitivity to drug … compared to mock controls” value in assay [2] (FIGS. 14A-14H) was “more sensitive”.

As a reminder, the EC50 is the midpoint of the concentration-response curve.
